US11434479B2, “Sialic acid binding polypeptide” (priority 2017, dated 2022)
Substitutions are numbered along the chain they refer to.

Legend:
[1] = target: T1, Streptococcus pneumoniae NanB fragment (residues 30-697, SEQ ID NO:4) variant Sia-PS4, E541A (Streptococcus pneumoniae serotype 4, UniProt Q54727, E541A); assay: Bio-layer Interferometry (BLI) steady-state binding to immobilized oligosaccharides; details: in words
T1 construct: exemplified by a NanB fragment (residues 30-697); poly-histidine; made in house; host or cells: pET28a+ based plasmid
T1 sequence (Q54727 30-692 E541A): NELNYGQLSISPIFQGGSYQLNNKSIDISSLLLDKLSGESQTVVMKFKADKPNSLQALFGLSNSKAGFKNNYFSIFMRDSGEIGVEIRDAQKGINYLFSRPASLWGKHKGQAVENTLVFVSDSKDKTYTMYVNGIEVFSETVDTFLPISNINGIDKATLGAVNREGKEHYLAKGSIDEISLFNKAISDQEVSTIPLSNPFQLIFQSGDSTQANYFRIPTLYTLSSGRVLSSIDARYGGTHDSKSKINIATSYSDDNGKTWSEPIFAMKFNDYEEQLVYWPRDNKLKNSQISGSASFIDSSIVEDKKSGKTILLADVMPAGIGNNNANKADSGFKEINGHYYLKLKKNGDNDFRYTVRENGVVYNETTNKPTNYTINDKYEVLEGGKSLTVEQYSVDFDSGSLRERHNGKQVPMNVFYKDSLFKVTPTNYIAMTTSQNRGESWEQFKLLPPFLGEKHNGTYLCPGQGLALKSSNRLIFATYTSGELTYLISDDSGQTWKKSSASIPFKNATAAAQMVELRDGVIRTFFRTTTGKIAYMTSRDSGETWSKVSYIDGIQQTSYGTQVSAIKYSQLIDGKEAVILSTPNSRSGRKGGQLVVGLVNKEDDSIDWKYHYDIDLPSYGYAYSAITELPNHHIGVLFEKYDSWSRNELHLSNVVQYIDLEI
From the text: (§1) Lsp=lactose (no sialic acid), 3′SL=α2,3-sialyllactose, 6′SL=α2,6-sialyllactose, GD3=GD3 oligosaccharide that contains a terminal α2,8-linked Neu5Ac residue and an internal α2,3-linked Neu5Ac residue.
(§2) The pan-specific sialic acid-recognizing affinity reagent of the invention is exemplified by a NanB fragment (residues 30-697; SEQ ID NO:4) with a single mutation. Exemplary mutation sites include Y653, D270, and E541. Exemplary pan-specific affinity reagents, each having a single mutation in the NanB GH domain as noted, are shown in Table 2 and include Sia-PS1 (Y653F), Sia-PS2 (D270A), Sia-PS3 (D270N), Sia-PS4 (E541A), and Sia-PS5 (E541Q). […] They reduce (Sia-PS2 and Sia-PS3) or effectively eliminate (Sia-PS1, Sia-PS4, and Sia-PS5) catalytic activity, and they broaden specificity for sialic acid ligand binding. The pan-specific sialic acid-recognizing affinity reagent we chose for further validation study was Sia-PS1 that contains the Y653F at active site residue Tyr653. This one mutation, which involves removal of a single hydroxyl group, not only eliminates enzyme activity, but astonishingly introduces pan-specific binding into the mutated, inactivated enzyme, despite its distance from the carbohydrate binding module (CBM) domain of the NanB.
(§3) The flowchart presented in FIG. 2 outlines schematically the methods employed in Example I and II to screen, optimize and select the Lectenz® candidates. The specificity and affinity of potential Lectenz® candidates is evaluated through structurally-guided site-specific and/or site-saturation mutagenesis assays designed to enable the selection of optimal clones. Bio-layer Interferometry (BLI) is used to determine the binding kinetics and affinities for binding to glycans and glycoproteins. Affinity chromatography is performed by immobilizing the Lectenz® candidates in a column format to evaluate their ability to fractionate sialylated- and asialo-glycans and glycoconjugates. All promising Lectenz® candidates are screened against the glycan array at the CFG, which currently contains over 600 O- and N-linked glycans.
(§4) Steady-state binding constants between Lectenz® candidates and sialic acid ligands were measured by BLI.

[2] = target: T2, Streptococcus pneumoniae NanB fragment (residues 30-697, SEQ ID NO:4) variant Sia-PS3, D270N (Streptococcus pneumoniae serotype 4, UniProt Q54727, D270N); assay: as above; details: in words
T2 construct: exemplified by a NanB fragment (residues 30-697); made in house; host or cells: pET28a+ based plasmid
T2 sequence (Q54727 30-692 D270N): T1 sequence (Q54727 30-692 E541A) with D241N, A512E
From the text: as §1, §2, §3, §4

Row | Structure (SMILES) | binding affinity [1] | binding affinity [2] | KD value [1]
1 | CC(=O)N[C@H]1[C@H]([C@H](O)[C@H](O)CO)O[C@@](OC[C@H]2O[C@@H](O[C@H]3[C@H](O)[C@@H](O)C(O)O[C@@H]3CO)[C@H](O)[C@@H](O)[C@H]2O)(C(=O)O)C[C@@H]1O (stereo partly shown) [6′SL, 6′-sialyllactose (Neu5Acα2,6Galβ1, 4Glcβ, or 6′SL)] | micromolar or sub-micromolar | micromolar or sub-micromolar | 
2 | CC(=O)N[C@H]1[C@H]([C@H](O)[C@H](O)CO)O[C@@](O[C@H](CO)[C@@H](O)[C@@H]2O[C@@](O[C@H]3[C@@H](O)[C@@H](CO)O[C@@H](O[C@H]4[C@H](O)[C@@H](O)C(O)O[C@@H]4CO)[C@@H]3O)(C(=O)O)C[C@H](O)[C@H]2NC(C)=O)(C(=O)O)C[C@@H]1O (stereo partly shown) [GD3, Neu5Acα2,8Neu5Acα2,3Galβ1, 4Glcβ] | micromolar or sub-micromolar | micromolar or sub-micromolar | 
3 | CC(=O)N[C@H]1[C@H]([C@H](O)[C@H](O)CO)O[C@@](O[C@H]2[C@@H](O)[C@@H](CO)O[C@@H](O[C@H]3[C@H](O)[C@@H](O)C(O)O[C@@H]3CO)[C@@H]2O)(C(=O)O)C[C@@H]1O (stereo partly drawn) [3′SL, α2,3-sialyllactose] | micromolar or sub-micromolar | micromolar or sub-micromolar | sub-micromolar
